According to patent US20240122941A1, “THERAPY BASED ON SYNTHETIC LETHALITY IN SWI/SNF COMPLEX-DYSFUNCTION CANCER” (NATIONAL CANCER CENTER, priority 2020, published 2024):
pIC50: −log10 of the molar value. Like-named read-outs stand apart in the source and are kept apart here.

How the values were obtained:
[1] = tested on: ARID1 deficient cancer cell group versus ARID1 wild-type cell group; assay: Experiment comparing sensitivity depending on the presence/absence of ARID1; type: cell-based; conditions: 6 days culture, CellTiter-Glo, FIG. 12; result in words
Description: Cytotoxic activity of a CBP/P300 inhibitor on ARID1 deficient cancer cells, i.e., A2780 cells (ovarian cancer derived), RMG-V cells (ovarian cancer derived), TOV21G cells (ovarian cancer derived), and OVISE cells (ovarian cancer derived), and ARID1 wild-type cells, i.e., H1048 cells, H460 cells, 786-O cells, H2228 cells, H2009 cells, and H358 cells, was compared.

recombinant p300 = recombinant p300 (Homo sapiens (Human), UniProt Q09472); assay: HAT activity inhibiting experiment, SensoLyte HAT (p300) Assay Kit; type: biochemical; conditions: recombinant p300, acetyl-CoA, histone H3 peptide, fluorescence; read-out: HAT activity inhibition IC50
Experimental: 50 μL of Stop Solution was added to quench the reaction. 100 μL of p300 Developer solution diluted 50-fold with an assay buffer was added, and the mixture was incubated for 30 minutes at room temperature under shaded conditions.

[2] = tested on: H23 cells (pulmonary adenocarcinoma derived, SMARCA2/A4 deficient); assay: Cell growth suppression experiment (CellTiter-Glo), H23 cells; type: cell-based; conditions: for pIC50: Homo sapiens, NCI-H23, 144 h, cultured for 6 days, CellTiter-Glo; for cell survival rate (%) at treatment with 10 μM, H23: 6 days;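 for all read-outs here: compounds tested as CBP/P300 agents, added one day after plating in 96-well plates with DMEM-F12 plus 10% fetal bovine serum, 0.1% DMSO final, luminescent viability read-out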
[3] = tested on: DMS114 cells (small cell lung cancer derived, SMARCA2/A4 deficient); assay: Cell growth suppression experiment (CellTiter-Glo), DMS114 cells; type: cell-based; conditions: for pIC50: Homo sapiens, DMS-114, 144 h, cultured for 6 days, CellTiter-Glo; for cell growth suppression effect on DMS114 cells: result in words
[4] = tested on: TOV112D cells (small cell ovarian cancer derived, SMARCA2/A4 deficient); assay: Cell growth suppression experiment (CellTiter-Glo), TOV112D cells; type: cell-based; conditions: for pIC50: Homo sapiens, 144 h, cultured for 6 days, CellTiter-Glo; for cell survival rate (%) at treatment with 10 μM, TOV112D: 6 days;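 for all read-outs here: luminescent viability read-out of TOV112D cells grown in DMEM-F12 with 10% fetal bovine serum, compound exposure starting one day after plating, DMSO at 0.1% final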
[5] = tested on: H460 cells (pulmonary adenocarcinoma derived, SMARCA2/A4 wild-type); assay: Cell growth suppression experiment (CellTiter-Glo), H460 cells; type: cell-based; conditions: Homo sapiens, NCI-H460, 144 h; for viability at 10 µM: 6 days, read-out: cell survival rate (%) at treatment with 10 μM, H460; for pIC50: cultured for 6 days, CellTiter-Glo;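 for all read-outs here: luminescent viability read-out, compound added one day after seeding at 0.1% final DMSO, cells grown in DMEM-F12 with 10% fetal bovine serum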
[6] = tested on: SMARCA2/A4 deficient cells, i.e., H23 cells, DMS114 cells, and TOV112D cells; assay: Cell growth suppression experiment, SMARCA2/A4 deficient cells (summary of Example 8); type: cell-based; conditions: H23, DMS114 and TOV112D cells versus H460 cells; result in words
Experimental: Cytotoxic activity of a CBP/P300 on SMARCA2/A4 deficient cells, i.e., H23 cells (pulmonary adenocarcinoma derived), TOV112D cells (small cell ovarian cancer derived), and DMS114 cells (small cell lung cancer derived), and SMARCA2/A4 wild-type cells, i.e., H460 cells (pulmonary adenocarcinoma derived) was compared.
H23 cells, TOV112D cells, DMS114 cells, and H460 cells were cultured under 5% CO2 conditions at 37° C. in a 10% fetal bovine serum and 1% penicillin/streptomycin-containing DMEM-F12 medium.
Cells were seed on a 96-well plate at 250 to 500 cells per well. […] After completion of culture, the cell survival rate was measured using CellTiter-Glo Luminescent Cell Viability Assay (Promega, G770).

[7] = tested on: JMU-RTK-2 cells (malignant rhabdoid tumor derived, SMARCB1 deficient); assay: Selectivity in cell growth suppression, JMU-RTK-2 cells; conditions: for pIC50: 144 h; for Selective Index: IC50 of JMU-RTK-2+SMARCB1 cells with respect to IC50 of JMU-RTK-2 cells
Description: (§1) The cytotoxic activity of a CBP/P300 inhibitor on JMU-RTK-2 cells and JMU-RTK-2+SMARCB1 cells was compared.

[8] = tested on: G-401 cells (malignant rhabdoid tumor derived, SMARCB1 deficient); assay: Cell growth suppression experiment (CellTiter-Glo), G-401 cells; conditions: for pIC50: Homo sapiens, G-401, 72 h; for cell survival rate (%) at treatment with 10 μM, G-401: G-401 cells, 10 μM (maximum treatment concentration), 3 days
Experimental: (§2) G-401 cells and G-402 cells were cultured under the conditions of 5% CO2 at 37° C. in a 10% fetal bovine serum and 1% penicillin/streptomycin-containing McCoy's 5A medium. CHLA-06-ATRT cells were cultured under the conditions of 5% CO2 at 37° C. in a 10% B-27 supplement, 20 ng/mL EGF, 20 ng/mL FGF, and 1% penicillin/streptomycin-containing DMEM:F12 medium.

[9] = tested on: 786-O cells (renal cancer derived, SMARCB1 wild-type); assay: Cell growth suppression experiment (CellTiter-Glo), 786-O cells; conditions: Homo sapiens, 786-0, 72 h; for pIC50: read-out: IC50 786-O; for viability at 10 µM: read-out: cell survival rate (%) at treatment with 10 μM, 786-O
Experimental: as §2

[10] = tested on: JMU-RTK-2+SMARCB1 cells (JMU-RTK-2 cells overexpressing SMARCB1); assay: Selectivity in cell growth suppression, JMU-RTK-2+SMARCB1 cells; conditions: 144 h
Description: as §1

[11] = tested on: SMARCB1 deficient cells, i.e., G-401 cells, G-402 cells, and CHLA-06-ATRT cells; assay: Cell growth suppression experiment, SMARCB1 deficient cells (summary of Example 1); conditions: G-401, G-402 and CHLA-06-ATRT cells versus 786-O cells; result in words
Experimental: as §2

CBP bromodomain = CBP bromodomain (Homo sapiens (Human), UniProt Q92793); assay: BRD inhibition experiment, CBP bromodomain TR-FRET Assay Kit
[12] = tested on: CHLA-06-ATRT cells (atypical teratoid/rhabdoid tumor derived, SMARCB1 deficient); assay: Cell growth suppression experiment (CellTiter-Glo), CHLA-06-ATRT cells; conditions: 72 h, read-out: IC50 CHLA-06-ATRT
Experimental: as §2

[13] = tested on: histone H3K27 acetylation in G-401 cells and CHLA-06-ATRT cells; assay: Intracellular histone H3K27 acetylation inhibition experiment (Western blotting); type: cell-based; conditions: G-401 and CHLA-06-ATRT cells, 24 hours, FIG. 7
Experimental: G-401 cells (malignant rhabdoid tumor derived) and CHLA-06-ATRT cells (atypical teratoid/rhabdoid tumor derived) were seeded on a 6-well plate at 500000 cells per well. […] After completion of culture, the cells were detached through trypsin treatment. The culture was centrifuged and the supernatant was removed to recover cell pellets. 150 μL of RIPA buffer was added to the cell pellets to lyse the cells to extract the entire protein. Acetylation of histone H3K27 was detected by Western blotting. An anti-acetylation H3K27 antibody (Cell Signaling Technology, 8173) was used for the detection of acetylated H3K27 (FIG. 7).

[14] = tested on: SMARCB1 deficient cell group versus SMARCB1 wild-type cell group; assay: Experiment comparing sensitivity depending on the presence/absence of SMARCB1; type: cell-based; conditions: 6 days culture, CellTiter-Glo, FIG. 3; result in words
Description: Cytotoxic activity of a CBP/P300 inhibitor on SMARCB1 deficient cells, i.e., G-401 cells (malignant rhabdoid tumor derived), G-402 cells (malignant rhabdoid tumor derived), JMU-RTK-2 cells (malignant rhabdoid tumor derived), and HS-EU-1 cells (epithelioid sarcoma derived), and SMARCB1 wild-type cells, i.e., 786-O cells (renal cancer derived), VMRC-RCZ cells (renal cancer derived), Caki-1 cells (renal cancer derived), H446 cells (lung cancer derived), ES2 cells (ovarian cancer derived), H460 cells (lung cancer derived), H2228 cells (lung cancer derived), HEK293T cells (normal kidney tissue derived), and H358 cells (lung cancer derived) was compared.

[15] = read-out: JMU-RTK-2 + SMARCB1 IC50
[16] = read-out: JMU-RTK-2 IC50, JMU-RTK-2 cells, cultured for 6 days, CellTiter-Glo
[17] = read-out: IC50 G-401, G-401 cells, cultured for 3 days, CellTiter-Glo cell survival
[18] = read-out: JMU-RTK-2 + SMARCB1 IC50, JMU-RTK-2+SMARCB1 cells, cultured for 6 days, CellTiter-Glo

Sequence of recombinant p300 (Q09472 whole entry): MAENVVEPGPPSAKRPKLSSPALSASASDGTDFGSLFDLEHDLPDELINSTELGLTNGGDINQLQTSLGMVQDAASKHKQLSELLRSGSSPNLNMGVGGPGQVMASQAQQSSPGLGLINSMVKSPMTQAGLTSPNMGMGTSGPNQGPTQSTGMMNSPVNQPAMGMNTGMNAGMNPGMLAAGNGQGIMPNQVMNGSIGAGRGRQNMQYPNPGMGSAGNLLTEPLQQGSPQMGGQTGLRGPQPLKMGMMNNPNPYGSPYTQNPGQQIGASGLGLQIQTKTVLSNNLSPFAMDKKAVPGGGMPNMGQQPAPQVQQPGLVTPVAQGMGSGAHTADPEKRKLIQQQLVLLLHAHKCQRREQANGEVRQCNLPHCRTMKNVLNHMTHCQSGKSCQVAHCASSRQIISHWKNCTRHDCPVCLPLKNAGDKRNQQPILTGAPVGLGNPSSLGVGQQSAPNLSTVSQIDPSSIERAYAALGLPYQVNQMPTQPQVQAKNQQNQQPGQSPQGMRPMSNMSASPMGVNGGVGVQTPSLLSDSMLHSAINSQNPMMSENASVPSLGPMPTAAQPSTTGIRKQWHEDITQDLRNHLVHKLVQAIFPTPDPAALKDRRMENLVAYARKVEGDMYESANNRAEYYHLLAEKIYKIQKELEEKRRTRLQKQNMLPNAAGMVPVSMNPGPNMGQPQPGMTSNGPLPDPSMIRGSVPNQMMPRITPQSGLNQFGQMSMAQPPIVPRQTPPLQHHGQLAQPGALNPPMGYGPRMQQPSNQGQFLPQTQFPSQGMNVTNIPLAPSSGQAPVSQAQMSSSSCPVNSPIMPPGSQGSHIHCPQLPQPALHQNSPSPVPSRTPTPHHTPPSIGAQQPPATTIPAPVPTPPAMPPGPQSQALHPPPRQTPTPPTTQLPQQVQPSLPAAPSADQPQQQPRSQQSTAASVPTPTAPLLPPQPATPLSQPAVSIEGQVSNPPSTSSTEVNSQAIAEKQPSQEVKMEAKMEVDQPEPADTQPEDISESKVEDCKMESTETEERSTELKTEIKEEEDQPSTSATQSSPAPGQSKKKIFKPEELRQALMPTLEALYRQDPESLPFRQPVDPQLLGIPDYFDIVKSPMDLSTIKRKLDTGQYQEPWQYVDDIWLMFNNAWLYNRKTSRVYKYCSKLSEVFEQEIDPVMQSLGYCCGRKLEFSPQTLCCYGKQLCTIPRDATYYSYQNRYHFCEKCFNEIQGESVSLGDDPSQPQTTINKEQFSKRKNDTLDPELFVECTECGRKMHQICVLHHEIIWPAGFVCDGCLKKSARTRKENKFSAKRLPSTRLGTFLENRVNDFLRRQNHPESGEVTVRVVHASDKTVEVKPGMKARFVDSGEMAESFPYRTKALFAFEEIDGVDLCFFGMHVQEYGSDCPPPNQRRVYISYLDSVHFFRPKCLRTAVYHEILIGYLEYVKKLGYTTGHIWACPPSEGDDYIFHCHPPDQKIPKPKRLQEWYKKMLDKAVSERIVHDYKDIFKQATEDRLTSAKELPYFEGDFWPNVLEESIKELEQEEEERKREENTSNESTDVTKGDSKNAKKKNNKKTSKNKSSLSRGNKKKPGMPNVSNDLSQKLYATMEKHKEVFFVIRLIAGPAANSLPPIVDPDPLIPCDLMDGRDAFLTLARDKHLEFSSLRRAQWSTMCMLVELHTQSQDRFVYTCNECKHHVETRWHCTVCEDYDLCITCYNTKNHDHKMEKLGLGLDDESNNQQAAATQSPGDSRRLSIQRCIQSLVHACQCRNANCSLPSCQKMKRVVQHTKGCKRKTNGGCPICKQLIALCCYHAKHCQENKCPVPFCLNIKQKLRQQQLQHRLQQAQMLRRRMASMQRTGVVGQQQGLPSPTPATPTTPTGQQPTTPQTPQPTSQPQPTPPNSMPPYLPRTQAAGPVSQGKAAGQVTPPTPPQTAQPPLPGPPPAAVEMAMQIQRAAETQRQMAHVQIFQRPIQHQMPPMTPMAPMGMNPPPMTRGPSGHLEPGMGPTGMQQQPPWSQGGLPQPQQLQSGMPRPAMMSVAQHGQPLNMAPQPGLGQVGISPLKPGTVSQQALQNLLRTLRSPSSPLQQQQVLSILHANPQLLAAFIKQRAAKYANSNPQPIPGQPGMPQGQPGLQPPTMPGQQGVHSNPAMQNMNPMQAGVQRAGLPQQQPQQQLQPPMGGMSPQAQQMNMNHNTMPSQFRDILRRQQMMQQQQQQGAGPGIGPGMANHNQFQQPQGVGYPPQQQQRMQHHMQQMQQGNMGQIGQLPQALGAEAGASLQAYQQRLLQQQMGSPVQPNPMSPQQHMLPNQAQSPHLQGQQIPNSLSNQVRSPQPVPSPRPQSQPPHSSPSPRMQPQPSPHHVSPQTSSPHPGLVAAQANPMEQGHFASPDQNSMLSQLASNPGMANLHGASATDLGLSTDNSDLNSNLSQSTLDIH
Sequence of CBP bromodomain (Q92793 1085-1192): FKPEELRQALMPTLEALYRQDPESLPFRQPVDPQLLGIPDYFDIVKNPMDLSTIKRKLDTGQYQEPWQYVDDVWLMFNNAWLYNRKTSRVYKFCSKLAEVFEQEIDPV

Row | SMILES | pIC50 (recombinant p300) | pIC50 [2] | pIC50 ([3]; DMS114 cells) | pIC50 [4] | viability at 10 µM [5] [%] | pIC50 [5] | cell growth suppression effect on SMARCA2/A4 deficient cells [6] | pIC50 ([7]; read-out: JMU-RTK-2 IC50) | Selective Index [7] | pIC50 ([8]; read-out: IC50 G-401) | pIC50 [9] | viability at 10 µM [9] [%] | pIC50 [10, 15] | cell growth suppression effect on SMARCB1 deficient cells [11] | also measured
1 | CO[C@H]1CC[C@H](n2c([C@@H]3CCCC(=O)N3c3ccc(F)c(F)c3)nc3cc(-c4c(C)noc4C)ccc32)CC1 [CCS-1477, reference compound] | – | – | – | – | – | – | – | – | – | – | – | – | – | – | IC50 value for the ARID1 deficient cancer cell group compared with the ARID1 wild-type cell group [1]: less than the IC50 value for the ARID1 wild-type cell group
2 | O=C(Nc1ccc2[nH]ncc2n1)C1CC(F)CN1C(=O)C1(c2ccc(OC(F)F)cc2)CCC(F)(F)CC1 (stereo not shown) [Compound 5] | 7.00 | 5.85 | 6.39 | 5.82 | 99 | < 5.00 | particularly selective and potent cell growth suppression effect | 6.70 | 45.3 | 6.36 | < 5.00 | 102 | 5.06 | selective and potent Cell growth suppression effect | –
3 | CCN(CC)c1ccc(-c2nc3cc(C(=O)NC)ccc3n2Cc2ccn(CC)n2)cn1 [Compound 6] | 6.80 | 5.95 | 6.86 | 6.14 | 92 | < 5.00 | particularly selective and potent cell growth suppression effect | 7.26 | 23.5 | 6.59 | < 5.00 | 83 | 5.89 | selective and potent Cell growth suppression effect | –
4 | CNC(=O)N1CCc2c(c(N3CCCc4cc(-c5cnn(C)c5)c(C(F)F)cc43)nn2C2CCOCC2)C1 [Compound 8] | – | < 5.00 | 5.40 | – | 101 | < 5.00 | – | – | – | – | < 5.00 | 92 | – | – | cell survival rate (%) at treatment with 10 μM, H23 [2]: 77%; cell growth suppression effect on DMS114 cells [3]: cell growth suppression effect; cell survival rate (%) at treatment with 10 μM, TOV112D [4]: 91%; pIC50 ([4]; TOV112D): < 5.00; pIC50 [7, 16]: 6.05; pIC50 (CBP bromodomain): > 7.60; cell survival rate (%) at treatment with 10 μM, G-401 [8]: 65%; pIC50 [8, 17]: < 5.00; pIC50 [10, 18]: 5.04
5 | Cn1cc(C(=O)Nc2ccc3c(c2)OCCO3)c2ccccc2c1=O [Compound 12] | – | < 5.00 | < 5.00 | < 5.00 | 100 | < 5.00 | – | 5.41 | 3.9 | < 5.00 | < 5.00 | 104 | 4.83 | – | cell survival rate (%) at treatment with 10 μM, H23 [2]: 97%; cell survival rate (%) at treatment with 10 μM, DMS114 ([3]; DMS114 cells, 10 μM, 6 days): 86%; cell growth suppression effect on DMS114 cells [3]: cell growth suppression effect; cell survival rate (%) at treatment with 10 μM, TOV112D [4]: 99%; pIC50 (CBP bromodomain): > 7.60; cell survival rate (%) at treatment with 10 μM, G-401 [8]: 83%
6 | C[C@H](N(Cc1ccc(F)cc1)C(=O)CN1C(=O)N[C@]2(CCc3cc(-c4cnn(C)c4)ccc32)C1=O)C(F)(F)F [Compound 14] | – | 5.90 | 6.48 | – | 89 | < 5.00 | particularly selective and potent cell growth suppression effect | – | – | – | < 5.00 | 74 | – | selective and potent Cell growth suppression effect | pIC50 ([4]; TOV112D): 5.99; pIC50 [7, 16]: 7.92; pIC50 [8, 17]: 6.82; pIC50 [10, 18]: 5.28; pIC50 [12]: 5.89
7 | Cn1cc(-c2ccc3c(c2)CC[C@]32NC(=O)N(CC(=O)N3Cc4cc(F)ccc4OC[C@H]3C(F)(F)F)C2=O)cn1 [Compound 15] | 7.32 | 6.39 | 7.04 | 6.51 | 78 | < 5.00 | particularly selective and potent cell growth suppression effect | 8.42 | 912 | 7.39 | < 5.00 | 51 | 5.47 | selective and potent Cell growth suppression effect | pIC50 [12]: 6.38
8 | COc1ccc(CCc2nc3cc(-c4c(C)noc4C)ccc3n2C[C@H](C)N2CCOCC2)cc1Cl [SGC-CBP30, reference compound] | – | – | – | – | – | – | – | – | – | – | – | – | – | – | intracellular histone H3K27 acetylation [13]: reduced treatment concentration dependent intracellular histone H3K27 acetylation; IC50 value for the SMARCB1 deficient cell group compared with the SMARCB1 wild-type cell group [14]: less than the IC50 value for the SMARCB1 wild-type cell group
